# Entries after “also recorded” stand apart in the source; their conditions may differ.
# System: NCI-60 cell lines
# Assay type: cell-based, human
Substance,Cell Line (NCI-60 cell line the peptide is associated with),Cell Line (NCI-60 cell line the peptide and its motif are associated with),Cell Line the peptide is associated with (peptide recovered from phage library selection on this NCI-60 cell line),Cell Line with which the peptide (and its tripeptide motif) is associated
RRDAGRM,SF-295 CNS,–,–,–
GAGRFPH,–,786-0 Renal,–,–
DVHARGD,–,–,NCI/ADR-RES Breast,–
AGRIASK,HT-29 Colon,–,–,–
AGLWPWN,–,–,CAIK-1 Renal,–
AGGGPPA,–,–,–,EKVX-Lung
AEYGRVL,–,M14 Melanoma,–,–
EVLWGGR,SF-268 CNS,–,–,–
CMLRSAT,–,SK-MEL-2 Melanoma,–,–
AASSWAV,–,M14 Melanoma,–,–
TWSTGGR,LOX-IMVI Melanoma,–,–,–
GNYGSVL,–,–,–,Hop-92-Lung
GAAASGY,SW620-Colon,–,–,–
NAGRGAS,–,–,TK-10 Renal,–
LRVSNPR,–,UACC62 Melanoma,–,–
AGRSCNL,HCT-116 Colon,–,–,–
PNRRVSA,–,–,–,Hop-92-Lung
PVFRGGS,–,–,MDA-MB-231 Breast,–
SVVRRGS,–,–,ACHN Renal,–
EFAVAGR,–,–,–,SR Leukemia
SLGLGGL,–,OVCAR-5 Ovarian,–,–
RLETLLS,–,–,UO31 Renal,–

Substance,Cell Line (NCI-60 cell line the peptide is associated with),Cell Line (NCI-60 cell line the peptide and its motif are associated with),Cell Line the peptide is associated with (peptide recovered from phage library selection on this NCI-60 cell line),Cell Line with which the peptide (and its tripeptide motif) is associated
LRGSRQF,–,SK-MEL-28 Melanoma,–,–
GAGLGVS,–,IGROV1 Ovarian,–,–
MSARGIL,–,SK-OV-3-3 Ovarian,–,–
HGRLAFG,–,SK-MEL-28 Melanoma,–,–
EGSVDAH,SW620-Colon,–,–,–
AGLPHRF,–,–,UO31 Renal,–
SLTRAVR,–,–,–,Hop-92-Lung
FAGGSTD,–,–,–,HL-60-Leukemia
LVSVNGA,SNB-19 CNS; also recorded: SF-539 CNS,–,–,–
WGRLEST,–,–,BT-549 Breast,–
NRSSHCG,–,M14 Melanoma,–,–
GCDGGSA,–,–,–,H23-Lung
QVMMRGS,–,–,–,HL-60-Leukemia
RPAGGRT,–,PC3 Prostate,–,–
GSITGGS,–,IGROV1 Ovarian,–,–
QWYSLRS,LOX-IMVI Melanoma,–,–,–
MLASAGR,–,–,–,HL-60-Leukemia
GVRGAAR,HCT-15 Colon,–,–,–
RRGSGGL,–,–,–,H23-Lung
DGAGSLR,–,OVCAR-5 Ovarian,–,–
HGLGSGT,–,–,–,RPMI-8226-Leukemia
GSGGANL,–,DU-145 Prostate,–,–

Substance,Cell Line (NCI-60 cell line the peptide is associated with),Cell Line (NCI-60 cell line the peptide and its motif are associated with),Cell Line the peptide is associated with (peptide recovered from phage library selection on this NCI-60 cell line),Cell Line with which the peptide (and its tripeptide motif) is associated
EGTSGSV,KM-12C Colon,–,–,–
AAKTLLS,SW620-Colon,–,–,–
LIHAGGQ,–,–,ACHN Renal,–
GVRSMPV,LOX-IMVI Melanoma,–,–,–
GRLWSRV,–,–,–,Hop-92-Lung
PRASDIL,–,–,BT-549 Breast,–
DRGVPGL,–,–,–,HL-60-Leukemia
RLRLSSW,–,–,TK-10 Renal,–
GGWARAV,SNB-75 CNS,–,–,–
LLSTVWV,–,–,TK-10 Renal,–
DVSGRVP,–,–,–,HL-60-Leukemia
LYGGVRY,–,–,–,A549-Lung
GLREVQD,–,–,HS 578 T Breast,–
YDGRLAR,SNB-19 CNS; also recorded: SF-539 CNS,–,–,–
DELGSVQ,–,–,TK-10 Renal,–
PRVSALV,–,–,MDA-MB-231 Breast,–
WSGVSRL,HCT-15 Colon,–,–,–
FGLRMSN,–,–,ACHN Renal,–
WRARASP,–,UACC62 Melanoma,–,–
FAASGVL,–,UACC 257 Melanoma,–,–
GGRLLRA,–,DU-145 Prostate,–,–
TICLGLG,–,–,CAIK-1 Renal,–

Substance,Cell Line (NCI-60 cell line the peptide is associated with),Cell Line (NCI-60 cell line the peptide and its motif are associated with),Cell Line the peptide is associated with (peptide recovered from phage library selection on this NCI-60 cell line),Cell Line with which the peptide (and its tripeptide motif) is associated
WLDAAVK,LOX-IMVI Melanoma,–,–,–
EVIGSGI,–,–,–,A549-Lung
LLRLSLA,–,–,–,H23-Lung
VGSVSVN,–,–,–,A549-Lung
VIVRGSL,–,–,UO31 Renal,–
LGGARGV,–,–,MDA-MB-231 Breast,–
AWLLSGR,–,UACC 257 Melanoma,–,–
GLREAHV,–,UACC62 Melanoma,–,–
GGVLYLE,–,–,–,H226-Lung
FSGDAVS,HT-29 Colon,–,–,–
LRYWAAV,–,SK-MEL-2 Melanoma,–,–
TRGAVFG,–,SK-MEL-5 Melanoma,–,–
RGSFGLG,–,–,T-47D Breast,–
RRGSLMF,SW620-Colon,–,–,–
VGSTRSS,–,SK-MEL-28 Melanoma,–,–
SYGLVLP,–,–,–,Hop-92-Lung
YRALAGG,–,–,MDA-MB-435-Breast,–
GGRSSHP,–,–,–,Molt-4-Leukemia
GRLRLTD,–,–,–,HL-60-Leukemia
MLGRGSV,–,–,SN12C Renal,–
FGVLFRS,–,–,–,EKVX-Lung
HRLRSMS,–,UACC62 Melanoma,–,–

Substance,Cell Line (NCI-60 cell line the peptide is associated with),Cell Line (NCI-60 cell line the peptide and its motif are associated with),Cell Line the peptide is associated with (peptide recovered from phage library selection on this NCI-60 cell line),Cell Line with which the peptide (and its tripeptide motif) is associated
GLGGWVA,–,–,–,H226-Lung
NNVGGSS,–,OVCAR-4 Ovarian,–,–
RAVGRVA,–,–,–,HL-60-Leukemia
IGASLLG,SF-268 CNS,–,–,–
RSSPVWT,SW620-Colon,–,–,–
QLGGSFR,–,SK-MEL-28 Melanoma,–,–
RGSYVER,–,–,BT-549 Breast,–
PTSGRLV,–,PC3 Prostate,–,–
VEYAAGR,–,–,–,CCRF-CEM Leukemia
GSSRTFR,–,–,–,A549-Lung
ATIPGGS,LOX-IMVI Melanoma,–,–,–
LAGSRVS,–,OVCAR-4 Ovarian,–,–
HVKNGRV,–,SK-MEL-28 Melanoma,–,–
SRYSLRS,–,–,–,A549-Lung
AASVGVA,–,–,MDA-MB-231 Breast,–
YADGAAV,SF-295 CNS,–,–,–
GYSRASD,HT-29 Colon,–,–,–
LLSASLV,–,–,–,K-562-Leukemia
AASLRGT,–,UACC62 Melanoma,–,–
SGVSGLS,–,–,–,EKVX-Lung
WAHAASY,–,–,CAIK-1 Renal,–
LGVRASP,–,–,BT-549 Breast,–

Substance,Cell Line (NCI-60 cell line the peptide is associated with),Cell Line (NCI-60 cell line the peptide and its motif are associated with),Cell Line the peptide is associated with (peptide recovered from phage library selection on this NCI-60 cell line),Cell Line with which the peptide (and its tripeptide motif) is associated
PFPARSS,–,–,–,H23-Lung
WTVGGRV,–,–,A498 Renal,–
QLLSQVY,–,–,MCF-7 Breast,–
VVGGRRT,–,–,HS 578 T Breast,–
GSVSDRF,SF-268 CNS,–,–,–
ARGSWRE,–,–,TK-10 Renal,–
EAVSRGS,–,–,–,K-562-Leukemia
YGSGGRG,HT-29 Colon,–,–,–
SRHGLVR,HCT-15 Colon,–,–,–
AGLGHEG,–,–,–,H23-Lung
VLRAASR,HT-29 Colon,–,–,–
WRLLRRQ,–,–,–,SR Leukemia
GSSLSRP,–,–,RXF393 Renal,–
YAASLMG,SNB-75 CNS,–,–,–
GGRRVVV,–,–,NCI/ADR-RES Breast,–
LGSSGLR,–,–,RXF393 Renal,–
SGVGSSL,–,–,–,EKVX-Lung
GSSLHLL,–,–,–,RPMI-8226-Leukemia
HVRSSYA,–,–,HS 578 T Breast,–
GLVSTLI,–,–,BT-549 Breast,–
TELVSWS,–,–,–,H322-Lung
GRGVGTD,HT-29 Colon,–,–,–
